Earlier results in US20030021749A1, “Treatment of cancer and other diseases by administration of positron-emitting radiopharmaceuticals” (priority 2000, published 2003).

Conditions: compared with FDG

concentration in tumor tissues: higher concentration in tumor tissues
SMILES: C[N+](C)(CF)CCO [FCH, fluorine-18 fluorocholine]
accumulation in normal brain tissue: does not accumulate in normal brain tissue as readily as FDG
